According to US11400103B2, “Methods of preventing platelet activation” (Vanderbilt University, priority 2015, dated 2022):
Entries after “also recorded” stand apart in the source; their conditions may differ.

Tests used:
[1] = Rate of reactivity of the scavengers with MDA in vitro (HPLC); conditions: for formation of MDA adduct of the scavenger relative to MDA-lysine adduct: 37° C., 4 h, MDA ratio 1:1, 0.1 M phosphate pH 7.4, HPLC; for lysine-MDA adducts formation: Lysine and MDA incubated at 37° C. for 4 h in presence of scavenger
Description: Determination of the rate of reactivity of the scavengers with MDA in vitro. N^α-Acetyllysine with or without SA, 3-MoSA or 4-HoBA was incubated at 37° C. in the presence of MDA (ratio 1:1) in 0.1 M phosphate, pH 7.4. After 4 h, 10 μl aliquots were diluted to 200 μl with solvent A and analyzed by HPLC. Solvent A consisted to 20% methanol/0.2% formic acid and solvent B was 99.8% methanol/0.2% formic acid. The gradient was as follows: 0-1 min 100% A, 1-7 min 100-0% A, 7-14 min […]. Phenomenex Kinetex column at a flow rate of 0.2 ml/min and the absorbance at 280 nm were used.

human washed platelets [2] = assay: Dilysyl-MDA crosslinks in arachidonic acid-activated human washed platelets (LC/MS/MS); assay type: cell-based; conditions: preincubation 40 min (ozagrel 100 μM, aspirin 100 μM, SA or 3-MoSA 1.5 mM), then 5 μM arachidonic acid 2 h
Description: (§1) In vitro platelet activation: Blood obtained from healthy volunteers was collected into vacuum tubes containing citrate, from a peripheral vein using a 21-gauge needle, and washed platelets were prepared as previously described (7). The platelets were counted with a Coulter counter and diluted with resuspension buffer to a final concentration of […], and aliquoted in volumes corresponding to 500 μl. The aliquots were preincubated for 40 min at room temperature with vehicle, the thromboxane synthase inhibitor ozagrel (100 μM), aspirin (100 μM) or the MDA scavengers, SA (1.5 mM) or 3-MoSA (1.5 mM). Next, arachidonic acid (5 μM) was added and the platelets were incubated for an additional 2 h at room temperature. The reactions were stopped by adding indomethacin (100 μM) and the aldehyde scavenger pyridoxamine (1 mM) for 30 min at 4° C., to inhibit all residual COX-1 activity and to prevent formation of MDA adducts on proteins during the purification process, respectively. An aliquot (5 μl) of sample was used for protein estimations using a BCA assay.
Analysis of Protease-Derived Lysyl-MDA-Lysyl Crosslinks (Dilysyl-MDA Crosslinks) in Washed Platelets by LC/ESI/MS/MS. Samples (around 3 mg of protein) were digested with proteases as previously described for lysyl-lactam adducts (7). In summary, the samples were subsequently heated at 95° C. and allowed to cool at room temperature, before step digestion with pronase (1 mg) at 37° C. for 24 h. Pronase was inactivated by heating samples at 95° C. for 10 min and then cooled to room temperature. Then, 1 μl of […] aminopeptidase was added for every 1 mg of sample protein and incubated at 37° C. for 24 h. Five nanograms of ^13C6-dilysyl-MDA crosslink standard were added to each platelet sample and dilysyl-MDA crosslinks were purified using Oasis cartridge as described above in the section for the preparation of dilysyl-MDA Crosslink standard. The eluate was dried under nitrogen flow to a volume of 100 μl, diluted up to 1 ml with a 0.1% formic acid aqueous solution, and filtered using a 0.22 µm nylon Spin-x centrifuge tube spun at 6,000 rpm for 5 min. Samples were purified by HPLC through the Thermo Scientific Aquasil C18 column. The fractions containing the radioactivity were pooled, concentrated in Oasis HLB cartridge, and then dried under nitrogen to a final volume of 40 μl.
Pooled HPLC fractions concentrated using Oasis were analyzed by LC/MS/MS using an YMC OD-AQ column. […] The gradient was as follows: 0-5 min 100-0% A, 5-7 min 0% A, 7-9 min 0-100% A, 9-15 min 100% A, with a flow rate of 0.2 ml/min. The mass spectrometer was operated in the positive ion mode and the electrospray needle was maintained at 4000 V. Nitrogen was used for both the sheath and auxiliary gas at pressures of 30 and 5 arbitrary units, respectively. […] These settings were used during all experiments, including the validation procedure.

COX-1 = assay: T×B2 in washed platelets by GC/MS as a measure of COX activity; assay type: cell-based, human; conditions: 5 μM arachidonic acid 2 h; for inhibition at 100 µM: Homo sapiens, Platelet, read-out: inhibition of T×B2 levels; for effect on T×B2 levels: scavenger 1.5 mM
Description: as §1
(§2) GC/NICI/MS quantification of thromboxane B2. Serum T×B2 (sT×B2) was measured as an indicator of inhibition of platelet COX activity from blood drawn into non-citrated vacuum tubes. Serum from patients was prepared by incubating the blood at 37° C. for 45 min and then centrifuged at 3,200×g for 15 min. Serum was separated and stored at −80° C. until analysis. For ex vivo experiment, 50 μl of washed platelets were used. sT×B2 was assayed by stable isotope dilution gas chromatography/mass spectrometry (GC/MS) with selective ion monitoring as described previously (10).

platelet COX1 = assay: Serum T×B2 in patients with sickle cell disease (GC/MS); assay type: in vivo, human
Description: as §2

[3] = system: platelets of patients with SCD; assay: Platelet dilysyl-MDA crosslinks in patients with sickle cell disease; assay type: in vivo, human
Description: Sample collection. Written informed consent was obtained from study participants and human blood was obtained following a protocol approved by the Institutional Review Board of Vanderbilt University. Samples were obtained from three different populations: healthy subjects who had no component of the MetSyn or SCD, patients with MetSyn and patients with SCD. Patients with MetSyn were 35-75 year old and fit the MetSyn criteria in accord with the American Heart Association/National Heart, Lung, and Blood Institute criteria (6). Patients with SCD were 25-50 year old and were homozygous sickle (SS) or compound heterozygote with beta-thalassemia (Sβ-thal) phenotype. […]
In vivo platelet activation: Metabolic Syndrome and Sickle Cell patients. […] Accordingly, the levels of dilysyl-MDA crosslinks in platelets were measured in two conditions in which there is evidence of in vivo platelet activation, metabolic syndrome (MetSyn) (8, 9) and sickle cell disease (SCD) (8, 9), and compared to the levels in platelets from healthy subjects isolated from blood collected in the same conditions. […]
Analysis of Protease-Derived Lysyl-MDA-Lysyl Crosslinks (Dilysyl-MDA Crosslinks) in Washed Platelets by LC/ESI/MS/MS. […] The fractions containing the radioactivity were pooled, concentrated in Oasis HLB cartridge, and then dried under nitrogen to a final volume of 40 μl. […]

RAW264.7 cells = assay: LG-lysyl adduct formation on histones in RAW264.7 cells; assay type: cell-based; conditions: 500 μM scavenger 45 min, 20 μM AA 1 h, COX-2 stimulated cells
Description: (A). Scavengers were screened in RAW264.7 cells for the ability to decrease LG adduct formation on histones. Scavengers used were glucosamine (GA), 3-methoxysalicylamine (3-MoSA), pentylpyridoxamine (PPM), and 5-ethylsalicylamine (EtSA). Cells were stimulated to express COX-2, pretreated 45 min. with 500 μM scavenger or vehicle (H2O), and given 20 μM AA for 1 h before lysing and extracting histones. Histone proteins were analyzed by LC/ESI/MS/MS for LG-lysyl lactam adduct, n=2.

Human platelets [4] = assay: Inhibition of formation of LG adducts in platelets; assay type: cell-based; conditions: 1 mM compound, 10 μM dazoxiben 30 min, arachidonic acid 2 h
Description: Human platelets were pre-incubated with 10 μM dazoxiben, a thromboxane synthase inhibitor, and 1 mM of the specified compound or vehicle (control) for 30 min. After incubation, […] arachidonic acid was added for 2 h, and then the proteins were precipitated and digested to single amino acids by step-digestion with proteases. The daughter ions at m/z 332.1 and 84.1 for the lactam were monitored. Values are means±SD (n=9)*P<0.001 vs. control, +P<0.001 vs. 100 μM concentration.

Human platelets [5] = conditions: previously shown (ref 4); cited from earlier work
human washed platelets [6] = assay: LC/MS/MS quantification of scavenger-MDA adducts from washed platelets; assay type: cell-based; conditions: 1.5 mM scavenger 40 min, then 5 μM arachidonic acid 2 h
Description: LC/MS/MS quantification of scavengers-MDA adducts from washed platelet. Washed platelets were activated as described above in the section “ex vivo activation”. The scavenger-MDA adducts were extracted three times with 500 μl of ethyl acetate from 50 μl of the reaction mixture, as described above. The extract was dried down, re-suspended in 100 μl of ACN-water (1:1, v/v), vortexed, and filtered through a 0.22-um spin X column. The reactions were analyzed by LC/MS/MS using the column and gradient as described above. The mass spectrometer was operated in the positive ion mode and the spray voltage was maintained at 5000 V. Nitrogen was used for the sheath gas and auxiliary gas at pressures of 30 and 5 arbitrary units, respectively. The optimized skimmer offset was set at 10, capillary temperature was 300° C. and the tube lens voltage for both compounds was set to 49. Selected reaction monitoring of specific transition ions for the precursor ions at m/z 178→106 (SA-MDA adduct) or m/z 208→136 (3-MoSA-MDA adduct) at −15 eV were used.

NCc1ccc(O)cc1 [4-HoBA, 4-hydroxybenzylamine, reference compound]
formation of MDA adduct of the scavenger relative to MDA-lysine adduct [1]: 0.6 fold

Cc1ccc(O)c(CN)c1 [MeSA, 5-methylsalicylamine]
levels of dilysyl-MDA crosslinks after platelet activation (human washed platelets [2]): as effective as scavengers as was SA; also recorded: prevent formation of MDA adducts of platelet proteins

CC(=O)Oc1ccccc1C(=O)O [aspirin, acetylsalicylic acid, reference compound]
inhibition at 100 µM (COX-1): 96% | levels of dilysyl-MDA crosslinks after platelet activation (human washed platelets [2]): reduced levels of the dilysysl-MDA crosslink to baseline levels; also recorded: reduce the dilysyl-MDA crosslinks to the levels in non-activated platelets

O=C(c1ccccc1)c1ccc2n1CCC2C(=O)O (stereo not shown) [ketorolac]
levels of serum T×B2 (platelet COX1; SCD patients during ketorolac treatment (from 219.7±183.1 ng/mL)): 68.9 ± 127.7 ng/mL | reduction in serum T×B2 (platelet COX1; SCD patients, therapeutic use): 69% | levels of platelet dilysyl-MDA crosslinks ([3]; SCD patients treated with ketorolac during admission for vaso-occlusive crisis): 3.15±1.18 ng/mg of protein | reduction of platelet dilysyl-MDA crosslinks ([3]; therapeutic use in SCD patients): reduction of dilysyl-MDA crosslinks to the level found in normal platelets

CCc1ccc(O)c(CN)c1 [EtSA, 5-ethylsalicylamine]
levels of dilysyl-MDA crosslinks after platelet activation (human washed platelets [2]): as effective as scavengers as was SA; also recorded: prevent formation of MDA adducts of platelet proteins | effect on LG adducts of histones (nucleus) (RAW264.7 cells): blocks LG-lysyl adduct formation on histones | effect on LG adducts of histones (nucleus) (RAW264.7 cells; listed as 5-ethylsalicylamine): effective scavenger

pentylpyridoxamine [reference compound]
scavenging of LG adducts in the platelet (Human platelets [4]): effective scavenger | effect on LG adducts of histones (nucleus) (RAW264.7 cells): only partially effective

CC(=O)O.NCc1ccccc1O [SA, Salicylamine acetate]
effect on T×B2 levels (COX-1): neither SA nor 3-MoSA significantly affected T×B2 levels | levels of dilysyl-MDA crosslinks after platelet activation (human washed platelets [2]; acetate): decreased levels of dilysysl-MDA crosslinks to baseline levels; also recorded: prevent formation of MDA adducts of platelet proteins | formation of levuglandinyl adducts of platelet proteins (Human platelets [5]): prevent formation of levuglandinyl adducts of platelet proteins | formation of MDA adduct of the scavenger relative to MDA-lysine adduct [1]: 9.2 fold | lysine-MDA adducts formation [1]: inhibited | formation of scavenger-MDA adducts in activated platelets (human washed platelets [6]): concomitant appearance of the equivalent scavenger-MDA adduct

CC(=O)O.COc1cccc(CN)c1O [3-MoSA, 3-methoxysalicylamine acetate]
effect on T×B2 levels (COX-1): neither SA nor 3-MoSA significantly affected T×B2 levels | levels of dilysyl-MDA crosslinks after platelet activation (human washed platelets [2]; acetate): decreased levels of dilysysl-MDA crosslinks to baseline levels; also recorded: prevent formation of MDA adducts of platelet proteins | scavenging of LG adducts in the platelet (Human platelets [4]): active | effect on LG adducts of histones (nucleus) (RAW264.7 cells): inactive | formation of MDA adduct of the scavenger relative to MDA-lysine adduct [1]: 15.1 fold | lysine-MDA adducts formation [1]: inhibited | formation of scavenger-MDA adducts in activated platelets (human washed platelets [6]): concomitant appearance of the equivalent scavenger-MDA adduct

O=C(O)/C=C/c1ccc(Cn2ccnc2)cc1 [ozagrel, reference compound]
inhibition at 100 µM (COX-1): 96% | levels of dilysyl-MDA crosslinks after platelet activation (human washed platelets [2]): reduced levels of the dilysysl-MDA crosslink to baseline levels; also recorded: reduce the dilysyl-MDA crosslinks to the levels in non-activated platelets
